In brackets after ≈: the same amount, converted by molar mass. Several values for one entry are separate records, joined by “and”; a condition that tells them apart may be missing. Equal entries are not always repeated.
Tests used:
[1] = tested on: T. b. brucei strain Lister 427 (s427-WT); experiment: resazurin EC50 assay, T. b. brucei wild-type bloodstream forms; assay type: cell-based, Trypanosoma brucei brucei; details: 48 h + 24 h resazurin, average and SEM, at least three determinations, NE = no effect on cell viability at 100 µM; for EC50: Trypanosoma brucei, 72 h
T. brucei B48 = experiment: microbe, parasite or virus in culture; assay type: cell-based, Trypanosoma brucei brucei; details: for EC50: Trypanosoma brucei, read-out: T. Brucei, EC50, B48
T. brucei 2T1 PYR6-5 −/− = experiment: microbe, parasite or virus in culture; assay type: cell-based, Trypanosoma brucei brucei; details: Trypanosoma brucei, read-out: T. Brucei, EC50, 2T1 PYR6-5 −/−
Tbb-5FURes = experiment: microbe, parasite or virus in culture; assay type: cell-based, Trypanosoma brucei brucei; details: Trypanosoma brucei, read-out: T. Brucei, EC50, Tbb-5FURes
U-937 cells = experiment: U-937 cytotoxicity (XTT); assay type: cell-based; details: 6 days incubation
Protocol: The U-937 cells used in the cytotoxicity evaluation were obtained from the AIDS Research and Reference Program. The cells were cultured as indicated by the supplier in RPMI-1640 supplemented with 10% heat inactivated FBS, 1% penicillin/streptomycin solution, and 1% L-glutamine.
U-937 cells plated at 2.5 × 10^3 cells/well in a volume of 100 µL were incubated with serially diluted test compounds in a volume of 100 µL for 6 days at 37 °C/5% CO2. Following the incubation, the cells were stained by adding 50 μL tetrazolium dye XTT (Sigma) solution at 5 mg/mL to determine cellular viability and read at 460/650 nm on a spectrophotometer. Toxicity values were calculated using linear regression analysis.

[2] = tested on: M. tuberculosis ATCC 25,177 (H37Ra); experiment: microbe, parasite or virus in culture; assay type: cell-based, Mycobacterium tuberculosis; details: for MIC: Mycobacterium tuberculosis, read-out: M. Tuberculosis 25,177 MIC
[3] = tested on: Staphylococcus aureus NRS384; experiment: microbe, parasite or virus in culture; assay type: cell-based; details: NRS384, read-out: extrapolated IC50, growth of S. aureus NRS384
[4] = tested on: L. mexicana 5FURes (Lmex5FURes); experiment: microbe, parasite or virus in culture; details: Leishmania mexicana, read-out: L. Mexicana 5FUR, EC50
Protocol: Promastigotes of Leishmania mexicana strain MNY/BZ/62/M379 was cultured in a minimal essential medium, HO-MEMO-MEME, supplemented with 10% FBS and 1% of a penicillin/streptomycin solution (Gibco) as described previously [39] at 25 °C. The L. mexicana 5FURes strain was the same strain but adapted in vitro to high levels of 5FU exactly as described for T. brucei [12].
The resazurin assay for L. mexicana promastigotes was performed exactly as for T. b. brucei, except that incubation times of 72 and 48 h were used before and after the addition of resazurin, respectively, due to the slower metabolism of the dye by Leishmania promastigotes [42].

T. vaginalis strain G3 = experiment: resorufin-based EC50 assay, T. vaginalis; details: Trichomonas vaginalis, read-out: Trichomonas Vaginalis, EC50
Protocol: The standard metronidazole-susceptible T. vaginalis strain G3was originally obtained from Jeremy Mottram (University of York, UK) and cultured in a modification of Diamond′s medium supplemented with 10% horse serum with a composition as described [40] at 37 °C under anaerobic conditions. Cultures were passaged daily.
Drugs were tested on T. vaginalis using a resorufin-based assay that we developed [40, 43]. The assay is based on the principle that live T. vaginalis trophozoites are, almost uniquely, able to reduce fluorescent, pink resorufin to non-fluorescent, colorless dihydro-resorufin. This conversion was measured as a dose-dependent increase in fluorescence (with dead cells unable to metabolize the fluorophore; λexc 544 nm, λem 599 nm), resulting in a sigmoid curve with variable slope that yielded EC50 values (Prism 6.0). Plates contained 11 doubling dilutions (1 row) and no-drug control for each compound starting at 100 µM under anaerobic conditions as described [40, 43]. Fluorescence was determined in a PheraStar plate reader (BMG Labtech).

M. tuberculosis H37Rv = experiment: microbe, parasite or virus in culture; assay type: cell-based; details: Mycobacterium tuberculosis, control drugs at critical concentrations
M. tuberculosis MS-115 = experiment: microbe, parasite or virus in culture; assay type: cell-based; details: Mycobacterium tuberculosis, MS115, read-out: M. Tuberculosis MS-115 MIC

What does the source list for `O=C(NCC#Cc1cn([C@H]2C=C[C@@H](O)C2)c(=O)n([C@H]2C=C[C@@H](O)C2)c1=O)C(F)(F)F` [Compound 10, 1-[4′-Hydroxy-2′-cyclopenten-1′-yl]-3-(4′′-hydroxy-2′′-cyclopent-en-1′′-yl)-5-(trifluoroacetamidepropynyl)uracil]?
T. Brucei, EC50, S427-WT [1]: little or no activity at the highest concentration tested; EC50 [1]: > 100 µM; EC50 (T. brucei B48): > 100 µM; EC50 (T. brucei 2T1 PYR6-5 −/−): > 100 µM; EC50 (Tbb-5FURes): > 100 µM; U-937 Cells TC50 (U-937 cells): 78.0 µM; MIC [2]: > 1000 µM and > 425 µg/mL; IC50 [3]: ~100 µM; EC50 [4]: > 100 µM; EC50 (T. vaginalis strain G3): 69.2 ± 0.05 µM

With `CCOC(=O)C#Cc1cn([C@H]2C=C[C@@H](O)C2)c(=O)n([C@H]2C=C[C@@H](O)C2)c1=O` [Compound 11, 1-[4′-Hydroxy-2′-cyclopenten-1′-yl]-3-(4′′-hydroxy-2′′-cyclopent-en-1′′-yl)-5-(ethyloxycarbonylpropynyl)uracil] as the compound, how does the “T. Brucei, EC50, S427-WT” value [1] read?
Its value is “little or no activity at the highest concentration tested”.

And the EC50 [1]?
The EC50 was greater than 100 µM.

What about the EC50 (T. brucei B48) of the same compound?
The EC50 was greater than 100 µM.

And the EC50 (T. brucei 2T1 PYR6-5 −/−)?
Its EC50 is greater than 100 µM.

And the EC50 (Tbb-5FURes)?
The EC50 was greater than 100 µM.

What about the “U-937 Cells TC50” value (U-937 cells) of the same compound?
Its value is 21.6 µM.

And the MIC [2]?
The MIC was 1000 µM and 372 µg/mL.

What about the IC50 [3] of the same compound?
Its IC50 is roughly 100 µM.

And the EC50 [4]?
The EC50 was greater than 100 µM.

And the EC50 (T. vaginalis strain G3)?
The EC50 was 53.8 ± 0.74 µM.

What does the source list for `CCCCCCCCCc1ccc(OCCOCCOCCOCCOCCOCCOCCOCCOCCO)cc1` [Compound N9, Nonoxynol-9, reference compound]?
U-937 Cells TC50 (U-937 cells; positive control): 6.5 µg/mL; U-937 Cells TC50 (U-937 cells; positive control, listed as Nonoxynol-9): toxic at the expected concentration

With `NNC(=O)c1ccncc1` [Isoniazid, reference compound] as the compound, how does the MIC (M. tuberculosis H37Rv) read?
The MIC was 0.1 µg/mL (≈ 0.729 µM).

And the MIC (M. tuberculosis MS-115)?
The MIC was greater than 100 µg/mL.

`NC[C@H]1O[C@H](O[C@H]2[C@H](O)[C@@H](O[C@H]3O[C@H](CO)[C@@H](O)[C@H](N)[C@H]3O)[C@H](N)C[C@@H]2N)[C@H](O)[C@@H](O)[C@@H]1O` [Kanamycin, reference compound] was tested. Which “M. Tuberculosis 25,177 MIC” value [2] did it give?
The value was 6.5 µM and 3.13 µg/mL.

For `C[C@H]1COc2c(N3CCN(C)CC3)c(F)cc3c(=O)c(C(=O)O)cn1c23` [Levofloxacin, reference compound], which MIC (M. tuberculosis H37Rv) is on record?
Its MIC is 1.5 µg/mL (≈ 4.15 µM).

And the MIC (M. tuberculosis MS-115)?
Its MIC is 1.5 µg/mL (≈ 4.15 µM).

With `Cc1ncc([N+](=O)[O-])n1CCO` [Metronidazole, reference compound] as the compound, how does the EC50 (T. vaginalis strain G3) read?
The EC50 was 0.53 ± 0.1 µM.

How did the EC50 [1] turn out when `N=C(N)c1ccc(OCCCCCOc2ccc(C(=N)N)cc2)cc1` [Pentamidine, reference compound] was run?
The EC50 was 0.0032 ± 0.0004 µM.

What about the EC50 (T. brucei B48) of the same compound?
The EC50 was 0.71 ± 0.03 µM.

What about the “fold resistance, B48 versus wild-type” value (T. brucei B48; higher EC50 against multi-drug resistant strain B48) of the same compound?
Its value is 219 fold.

And the EC50 (T. brucei 2T1 PYR6-5 −/−)?
Its EC50 is 0.0031 ± 0.0004 µM.

And the EC50 (Tbb-5FURes)?
Its EC50 is 0.0034 ± 0.0004 µM.

And the EC50 [4]?
The EC50 was 1.63 ± 0.18 µM.

Which results are given for `CO[C@H]1/C=C/O[C@@]2(C)Oc3c(C)c(O)c4c(O)c(c(/C=N/N5CCN(C)CC5)c(O)c4c3C2=O)NC(=O)/C(C)=C\C=C\[C@H](C)[C@H](O)[C@@H](C)[C@@H](O)[C@@H](C)[C@H](OC(C)=O)[C@@H]1C` [Rifampicin, reference compound]?
MIC [2]: 0.19 µM and 0.16 µg/mL; MIC (M. tuberculosis H37Rv): 1 µg/mL (≈ 1.22 µM); MIC (M. tuberculosis MS-115): > 50 µg/mL
